Measured values from PubChem BioAssay (NCI).
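Compound exposure: 48 hours, 5 concentrations, 96-well plates. TGI: total growth inhibition.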

How the values were obtained:
Experiment in all cases: growth of human tumour cells (NCI), 48 h
U251 CNS = test system: U251 CNS
HL-60(TB) leukemia = test system: HL-60(TB) leukemia
SK-MEL-2 melanoma = test system: SK-MEL-2 melanoma
MOLT-4 leukemia = test system: MOLT-4 leukemia
HCT-116 colon = test system: HCT-116 colon
NCI-H23 lung = test system: NCI-H23 lung
K-562 leukemia = test system: K-562 leukemia
HOP-62 NSCLC = test system: HOP-62 NSCLC
HCC-2998 colon = test system: HCC-2998 colon
EKVX NSCLC = test system: EKVX NSCLC
CAKI-1 renal = test system: CAKI-1 renal
SF-539 CNS = test system: SF-539 CNS
COLO 205 colon = test system: COLO 205 colon
HT29 colon = test system: HT29 colon
LOX IMVI melanoma = test system: LOX IMVI melanoma
UO-31 renal = test system: UO-31 renal
RXF 393 renal = test system: RXF 393 renal

| SMILES | TGI (U251 CNS) | TGI (HL-60(TB) leukemia) | TGI (SK-MEL-2 melanoma) | TGI (MOLT-4 leukemia) | TGI (HCT-116 colon) | TGI (NCI-H23 lung) | TGI (K-562 leukemia) | TGI (HOP-62 NSCLC) | TGI (HCC-2998 colon) | TGI (EKVX NSCLC) | TGI (CAKI-1 renal) | TGI (SF-539 CNS) | TGI (COLO 205 colon) | TGI (HT29 colon) | TGI (LOX IMVI melanoma) | TGI (UO-31 renal) | TGI (RXF 393 renal) |
| --- | --- | --- | --- | --- | --- | --- | --- | --- | --- | --- | --- | --- | --- | --- | --- | --- | --- |
| CCCCNC(=O)CCN(C(=O)O)S(=O)(=O)c1ccc(NC(=O)c2ccccc2)cc1 | > 100 µM | > 100 µM | > 100 µM | > 100 µM | > 100 µM | > 100 µM | > 100 µM | > 100 µM | > 100 µM | > 100 µM | > 100 µM | > 100 µM | > 100 µM | 49.8 µM | 34.6 µM | > 100 µM | – |
| COC(=O)CCc1cccnc1/C=N/O | > 100 µM | > 100 µM | > 100 µM | > 100 µM | > 100 µM | > 100 µM | > 100 µM | > 100 µM | – | > 100 µM | > 100 µM | > 100 µM | > 100 µM | > 100 µM | > 100 µM | > 100 µM | > 100 µM |
| Cc1nc(Nc2ccccc2)sc1C(=O)NNc1ccc([N+](=O)[O-])cc1[N+](=O)[O-] | > 100 µM | 41.2 µM | > 100 µM | 69.7 µM | > 100 µM | 44.2 µM | 60.1 µM | > 100 µM | > 100 µM | 71.2 µM | > 100 µM | > 100 µM | > 100 µM | > 100 µM | 87.9 µM | > 100 µM | 78.5 µM |
| CCCCCCCCCCCC(O)=C1C(=O)CC(O)CC1=O (stereo not given) | > 100 µM | 58.7 µM | > 100 µM | > 100 µM | > 100 µM | > 100 µM | > 100 µM | > 100 µM | > 100 µM | > 100 µM | > 100 µM | > 100 µM | > 100 µM | > 100 µM | > 100 µM | > 100 µM | > 100 µM |
| Brc1ccc2c(c1)C1C(CO2)C(c2ccccc2)=NN1c1ccccc1 (stereo not given) | > 100 µM | > 100 µM | > 100 µM | > 100 µM | > 100 µM | > 100 µM | > 100 µM | > 100 µM | > 100 µM | > 100 µM | – | – | > 100 µM | > 100 µM | > 100 µM | > 100 µM | > 100 µM |
| Cn1nc2ccc3nccc(N(CCO)CCO)c3c2n1 | > 100 µM | > 100 µM | > 100 µM | > 100 µM | > 100 µM | > 100 µM | > 100 µM | > 100 µM | > 100 µM | > 100 µM | > 100 µM | > 100 µM | > 100 µM | > 100 µM | > 100 µM | > 100 µM | > 100 µM |
| COc1ccc(N2C(=O)[C@@H]3[C@H](C2=O)c2[nH]c4ccccc4c2C2CCC(C(C)(C)C)C[C@@H]23)cc1 (stereo not given in full) | 49.1 µM | > 100 µM | > 89.9 µM | > 100 µM | > 100 µM | 66.4 µM | > 31.6 µM | 32.9 µM | > 100 µM | 81.4 µM | > 68.9 µM | 62.6 µM | > 84.2 µM | > 100 µM | > 58.6 µM | > 78.4 µM | 46 µM |
| CCCCCCCCCCCCn1[nH]c(C)c(C(=S)SCCCCCCCC)c1=O | > 100 µM | > 75.7 µM | > 100 µM | > 77.2 µM | > 100 µM | > 100 µM | > 100 µM | > 100 µM | > 100 µM | > 100 µM | > 100 µM | > 100 µM | > 100 µM | > 100 µM | > 100 µM | > 100 µM | > 80.9 µM |
| CCc1cccc(CC)c1NC(=O)C1=C(C)NC(C)=C(C(=O)Nc2c(CC)cccc2CC)C1c1ccc2c(c1)OCO2 | 27.4 µM | 26.4 µM | 33.7 µM | > 100 µM | 35.7 µM | 32.8 µM | 38.2 µM | 37.2 µM | 36.7 µM | 38.3 µM | 52 µM | 37.8 µM | 26.2 µM | 30.4 µM | 26 µM | 30.8 µM | – |
| CCCCCCCCCCCC(=O)c1c(O)cccc1O | 34 µM | 43.6 µM | 30 µM | 47.8 µM | 33.1 µM | 32.2 µM | > 100 µM | 31.5 µM | 34.3 µM | 33.6 µM | 56.7 µM | 32.4 µM | 29 µM | 45 µM | 33.7 µM | 30.2 µM | 40.4 µM |
| CC(C)(Oc1ccc2c(=O)cc(-c3ccccc3)oc2c1)C(=O)Nc1c(Cl)cccc1Cl | > 100 µM | > 100 µM | > 100 µM | > 100 µM | > 100 µM | > 100 µM | > 100 µM | > 100 µM | – | > 100 µM | > 100 µM | > 100 µM | – | > 100 µM | > 100 µM | > 100 µM | 30.2 µM |
